Assay results taken from US20080221195A1, “1,2-DIARYLACETYLENE DERIVATIVES OF ACYLTRYPTOPHANOLS” (priority 2006, published 2008).

These compounds were tested against T1, human FSH receptor (Homo sapiens, UniProt P23945) (assay: HTRF assay for measuring cAMP in cells (FSH-antagonistic effect)). Conditions: hFSHR clone 16 cells (CHO cells stably transfected with the human FSH receptor), in the presence of 1e-9 mol/l hFSH, 37° C. for 2 h.
T1 construct: expressed in transfected cells; host or cells: CHO cells (hFSHR clone 16)
T1 sequence (P23945 18-695): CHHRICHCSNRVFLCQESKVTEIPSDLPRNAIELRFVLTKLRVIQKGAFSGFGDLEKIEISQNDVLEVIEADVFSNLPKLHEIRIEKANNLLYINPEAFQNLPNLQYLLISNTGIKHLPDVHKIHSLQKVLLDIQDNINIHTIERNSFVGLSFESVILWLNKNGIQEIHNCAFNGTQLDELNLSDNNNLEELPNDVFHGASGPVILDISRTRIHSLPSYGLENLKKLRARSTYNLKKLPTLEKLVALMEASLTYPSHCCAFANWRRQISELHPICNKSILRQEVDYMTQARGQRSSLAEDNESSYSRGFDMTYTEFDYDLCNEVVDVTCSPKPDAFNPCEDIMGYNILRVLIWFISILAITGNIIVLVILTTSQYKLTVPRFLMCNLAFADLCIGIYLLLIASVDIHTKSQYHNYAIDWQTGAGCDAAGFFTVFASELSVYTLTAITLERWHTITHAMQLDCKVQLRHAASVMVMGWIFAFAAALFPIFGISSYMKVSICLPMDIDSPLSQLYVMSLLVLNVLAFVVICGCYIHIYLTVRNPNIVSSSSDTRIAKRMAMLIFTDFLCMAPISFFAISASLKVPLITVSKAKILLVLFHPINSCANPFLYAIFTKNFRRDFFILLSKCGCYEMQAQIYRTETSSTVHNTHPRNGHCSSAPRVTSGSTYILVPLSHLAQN
Format: cell-based
Method: HTRF Assay for Measuring cAMP in Cells
The method is based on a competitive immunoassay between native cAMP, which has been produced by the cells, and cAMP which is labelled with cAMPD2 conjugate. The tracer binding was visualized by a monoclonal antibody, anti-cAMP labelled with cryptate [HTRF=homogeneous time-resolved fluorescence].
The specific signal is inversely proportional to the cAMP concentration of the samples employed.
The 665 nm/620 nm fluorescence ratio was evaluated.
Materials used: 96-well plates for the tissue culture, 96-well plates with black edge and black base (e.g. Fluotrac 600 from Greiner), 96-well plates for the substance dilutions of polypropylene and cAMP Femtomolar (4000 wells Kit, CIS Bio International # 62AM5PEJ).
Reagent used: BSA (bovine serum albumin) Fraction V protease-free, IBMX (3-isobutyl-1-methylxanthine), hFSH (human follicle stimulating hormone), Triton X-100 analytical grade, potassium fluoride analytical grade, G 418 (Geneticin) and Accutase.
Buffer 1 (washing and testing buffer) contained PBS, 1 mM CaCl2, 1 mM MgCl2, 0.2% glucose; 0.1% BSA, 1 mM IBMX.
Buffer 2 (2× lysis buffer) contained 1% Triton X-100 in PBS (without CaCl2 and MgCl2).
Buffer 3 (assay buffer) contained 50 mM potassium phosphate buffer (pH 7.0); 800 mM potassium fluoride; 0.2% BSA (always added fresh).
On day 1, the cells were seeded in 96-well plates (3×10^4 cells per well hFSHR clone 16 cells (CHO cells stably transfected with the human FSH receptor in 150 μl of medium). The next day, test substance dilutions were made up. For this purpose, all the substances were diluted in ice-cold buffer 1 (with or without hFSH), and the substance dilutions were placed on ice until applied to the cells. The cell supernatant was then aspirated off, and the cells were washed 2× with 200 μl of buffer 1. The cells were treated with 60 μl of the appropriate substance concentrations at 37° C. for 2 h. The cells were then lysed with 60 μl of buffer 2 (put onto the supernatant) (on a plate shaker at RT for 30 min). The test conjugates (cAMP-D2 and anti-cAMP cryptate, CIS Bio) were diluted in buffer 3 in accordance with the manufacturers' information. The actual mixture for measurement was pipetted into a black 96-well plate (in each case 15 μl of the cell lysate diluted with 35 μl of buffer 1; firstly 25 μl of cAMP-D2 conjugate were pipetted and, after 10 min, 25 μl of the anti-cAMP cryptate were added). This is followed by incubation at RT for 90 minutes. The measurement was carried out in a PheraStar (BMG).
Dose-effect curve (hFSH) for the human receptor: 1e-8, 3e-9, 1e-9, 3e-10, 1e-10, 3e-11, 1e-11, 3e-12 mol/l.
The test substances were employed in suitable dilutions in the absence (test for agonism) and in the presence of 1e-9 mol/l hFSH.
The values of the well ratio were averaged and then entered directly in SigmaPlot versus the concentrations. The maximum and minimum values were determined for each plate, and half the difference is to be regarded as IC50.

Row | IC50 [nM] | SMILES
1 | 10 | CC(C)Oc1ccc(C#Cc2ccc(-c3cc[nH]n3)cc2)cc1C(=O)N[C@@H](CO)Cc1c[nH]c2ccccc12 [Example 142, N-[(R)-2-Hydroxy-1-(1H-indol-3-ylmethyl)-ethyl]-2-isopropoxy-5-[4-(1H-pyrazol-3-yl)-phenylethynyl]-benzamide]
2 | 3500 | CC(C)Oc1ccc(C#Cc2ccc(N3CCNCC3)cc2)cc1C(=O)N[C@@H](CO)Cc1c[nH]c2ccccc12 [Example 140, N-[(R)-1-Hydroxymethyl-2-(1H-indol-3-yl)-ethyl]-2-isopropoxy-5-(4-piperazin-1-yl-phenylethynyl)-benzamide]
3 | 2000 | CC(C)Oc1ccc(C#Cc2cccc(CN3CCNCC3)c2)cc1C(=O)N[C@@H](CO)Cc1c[nH]c2ccccc12 [Example 141, N-[(R)-1-Hydroxymethyl-2-(1H-indol-3-yl)-ethyl]-2-isopropoxy-5-(3-piperazin-1-ylmethyl-phenylethynyl)-benzamide]
4 | 70 | CC(C)Oc1ccc(C#Cc2ccsc2)cc1C(=O)N[C@@H](CO)Cc1c[nH]c2ccccc12 [Example 100, N-[(R)-2-Hydroxy-1-(1H-indol-3-ylmethyl)-ethyl]-2-isopropoxy-5-thiophen-3-ylethynyl-benzamide]
5 | 2500 | CC(C)Oc1ccc(C#Cc2ccccc2CC(=O)O)cc1C(=O)N[C@@H](CO)Cc1c[nH]c2ccccc12 [Example 58, (2-{3-[(R)-1-Hydroxymethyl-2-(1H-indol-3-yl)-ethylcarbamoyl]-4-isopropoxy-phenylethynyl}-phenyl)-acetic acid]
6 | 6000 | O=C(N[C@@H](CO)Cc1c[nH]c2ccccc12)c1cccc(C#Cc2ccccn2)c1 [Example 160, N-[(R)-1-Hydroxymethyl-2-(1H-indol-3-yl)-ethyl]-3-pyridin-2-ylethynyl-benzamide]
7 | 6 | CC(C)Oc1ccc(C#Cc2ccc3c(c2)CCNC3=O)cc1C(=O)N[C@@H](CO)Cc1c[nH]c2ccccc12 [Example 154, N-[(R)-1-Hydroxymethyl-2-(1H-indol-3-yl)-ethyl]-2-isopropoxy-5-(1-oxo-1,2,3,4-tetrahydro-isoquinolin-6-ylethynyl)-benzamide]
8 | 15 | CC(C)Oc1ccc(C#Cc2ccc3c(c2)C(=O)NC3=O)cc1C(=O)N[C@@H](CO)Cc1c[nH]c2ccccc12 [Example 156, 5-(1,3-Dioxo-2,3-dihydro-1H-isoindol-5-ylethynyl)-N-[(R)-1-hydroxymethyl-2-(1H-indol-3-yl)-ethyl]-2-isopropoxy-benzamide]
9 | 23 | CC(C)Oc1ccc(C#Cc2cccc(C(=O)NCCS(N)(=O)=O)c2)cc1C(=O)N[C@@H](CO)Cc1c[nH]c2ccccc12 [Example 167, N-[(R)-1-Hydroxymethyl-2-(1H-indol-3-yl)-ethyl]-2-isopropoxy-5-[3-(2-sulfamoyl-ethylcarbamoyl)-phenylethynyl]-benzamide]
10 | 90 | CC(C)Oc1ccc(C#Cc2ccc3oc(C(=O)O)cc3c2)cc1C(=O)N[C@@H](CO)Cc1c[nH]c2ccccc12 [Example 127, 5-{3-[(R)-1-Hydroxymethyl-2-(1H-indol-3-yl)-ethylcarbamoyl]-4-isopropoxy-phenylethynyl}-benzofuran-2-carboxylic acid]
11 | 25 | COC(=O)CCCCCNC(=O)c1ccc(C#Cc2ccc(OC(C)C)c(C(=O)N[C@@H](CO)Cc3c[nH]c4ccccc34)c2)cc1 [Example 171, 6-(4-{3-[(R)-1-Hydroxymethyl-2-(1H-indol-3-yl)-ethylcarbamoyl]-4-isopropoxy-phenylethynyl}-benzoylamino)-hexanoic acid methyl ester]
12 | 70 | CC(C)Oc1ccc(C#Cc2ccc(N3CCNC3=O)cc2)cc1C(=O)N[C@@H](CO)Cc1c[nH]c2ccccc12 [Example 146, N-[(R)-1-Hydroxymethyl-2-(1H-indol-3-yl)-ethyl]-2-isopropoxy-5-[4-(2-oxo-imidazolidin-1-yl)-phenylethynyl]-benzamide]
13 | 250 | CC(C)Oc1ccc(C#Cc2cccc(S(N)(=O)=O)c2)cc1C(=O)N[C@@H](CO)Cc1c[nH]c2ccccc12 [Example 123, N-[(R)-2-Hydroxy-1-(1H-indol-3-ylmethyl)-ethyl]-2-isopropoxy-5-(3-sulfamoyl-phenylethynyl)-benzamide]
14 | 100 | CC(C)Oc1ccc(C#Cc2ccccc2)cc1C(=O)NC(CO)Cc1c[nH]c2cc(F)ccc12 (centres unmarked) [Example 75, N-[2-(6-Fluoro-1H-indol-3-yl)-1-hydroxymethyl-ethyl]-2-isopropoxy-5-phenylethynyl-benzamide]
15 | 80 | Cc1ccc(C#Cc2ccc(OC(C)C)c(C(=O)N[C@@H](CO)Cc3c[nH]c4ccccc34)c2)nc1 [Example 94, N-[(R)-1-Hydroxymethyl-2-(1H-indol-3-yl)-ethyl]-2-isopropoxy-5-(5-methyl-pyridin-2-ylethynyl)-benzamide]
16 | 2000 | CC(C)Oc1ccc(C#Cc2ccc(-c3ccccc3)cc2)cc1C(=O)N[C@@H](CO)Cc1c[nH]c2ccccc12 [Example 111, 5-Biphenyl-4-ylethynyl-N-[(R)-1-hydroxymethyl-2-(1H-indol-3-yl)-ethyl]-2-isopropoxy-benzamide]
17 | 2500 | CNC(=O)c1ccc(C#Cc2cccc(C(=O)N[C@@H](CO)Cc3c[nH]c4ccccc34)c2)cc1 [Example 72, N-[(R)-1-Hydroxymethyl-2-(1H-indol-3-yl)-ethyl]-5-(4-methylcarbamoyl-phenylethynyl)-benzamide]
18 | 15 | CC(C)Oc1ccc(C#Cc2cncc(C(N)=O)c2)cc1C(=O)N[C@@H](CO)Cc1c[nH]c2ccccc12 [Example 97, 5-{3-[(R)-1-Hydroxymethyl-2-(1H-indol-3-yl)-ethylcarbamoyl]-4-isopropoxy-phenylethynyl}-nicotinamide]
19 | 4000 | CC(C)Oc1ccc(C#Cc2ccc(C3(O)CCNCC3)cc2)cc1C(=O)N[C@@H](CO)Cc1c[nH]c2ccccc12 [Example 106, N-[(R)-1-Hydroxymethyl-2-(1H-indol-3-yl)-ethyl]-5-[4-(4-hydroxy-piperidin-4-yl)-phenylethynyl]-2-isopropoxy-benzamide]
20 | 1300 | CC(C)Oc1ccc(C#Cc2ccc(OCCN(C)C)cc2)cc1C(=O)N[C@@H](CO)Cc1c[nH]c2ccccc12 [Example 103, 5-[4-(2-Dimethylamino-ethoxy)-phenylethynyl]-N-[(R)-1-hydroxymethyl-2-(1H-indol-3-yl)-ethyl]-2-isopropoxy-benzamide]
